Four molecules from PubChem BioAssay (NCI) can be followed below.

Among the test systems are 786-0 renal; A498 renal; BT-549 breast; CCRF-CEM leukemia; COLO 205 colon; EKVX NSCLC; HL-60(TB) leukemia; MDA-MB-435; NCI/ADR-RES ovarian; OVCAR-4 ovarian; RXF 393 renal; U251 CNS; UACC-62 melanoma.
Holding throughout (test): NCI anticancer screen, dose series, 48 h

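Exposure lasted 48 hours, with cells grown in 96-well plates and compounds tested at five concentrations. At the TGI there is no net growth.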 Some results are limits rather than exact numbers.

Take `CC(C)(C)OC(=O)NCC(CNC(=O)OC(C)(C)C)C(N)=O`: the TGI in the assay on 786-0 renal, with A498 renal, in the assay on BT-549 breast, in the assay with CCRF-CEM leukemia, with COLO 205 colon and in the assay on EKVX NSCLC was over 100 µM throughout. Also, the TGI in the assay on HL-60(TB) leukemia, in the assay with MDA-MB-435, in the assay on NCI/ADR-RES ovarian, in the assay on OVCAR-4 ovarian, in the assay on RXF 393 renal and in the assay with U251 CNS was over 100 µM throughout. Further, the TGI in the assay with UACC-62 melanoma was over 100 µM.

In the case of `CC(C)(C)c1cc(/C=C(\C#N)C2=NCCO2)cc(C(C)(C)C)c1O`, the TGI with 786-0 renal worked out at 14.7 µM; in the assay with A498 renal it was 16.7 µM; in the assay on BT-549 breast, 12.4 µM; in the assay on CCRF-CEM leukemia it was 9.35 µM; in the assay with COLO 205 colon, 3.39 µM; in the assay on EKVX NSCLC, 17.2 µM. Moreover, the TGI in the assay with HL-60(TB) leukemia was 5.87 µM; in the assay on MDA-MB-435 it was 32.3 µM; in the assay on NCI/ADR-RES ovarian, 10.7 µM; with OVCAR-4 ovarian, 22.8 µM; in the assay on RXF 393 renal, 14.7 µM; in the assay on U251 CNS it was 12 µM. This molecule gave a TGI in the assay with UACC-62 melanoma of 17.1 µM.

For `COc1cc(C2C=C(c3ccccc3)Oc3cc4c(cc32)OCO4)cc(OC)c1OC` (configuration not stated), the TGI was over 19.6 µM with 786-0 renal; over 100 µM with A498 renal; over 100 µM in the assay on BT-549 breast; over 100 µM in the assay on CCRF-CEM leukemia; over 17.1 µM with COLO 205 colon; over 100 µM with EKVX NSCLC. In addition, the TGI was over 34.3 µM in the assay on HL-60(TB) leukemia; over 100 µM in the assay with MDA-MB-435; over 15.2 µM with NCI/ADR-RES ovarian; over 100 µM in the assay on OVCAR-4 ovarian; over 100 µM in the assay with RXF 393 renal; over 100 µM with U251 CNS. In the assay on UACC-62 melanoma, this molecule had a TGI of over 100 µM.

On to `CCOP(=O)(OCC)Oc1c(OC)c2[nH]c(C(=O)OC)cc2c2c(C(=O)O)c[nH]c12`, for which the TGI in the assay on 786-0 renal, in the assay with A498 renal, in the assay on BT-549 breast, with CCRF-CEM leukemia, in the assay on COLO 205 colon and in the assay with EKVX NSCLC was over 100 µM throughout. Also, the TGI in the assay with HL-60(TB) leukemia, with MDA-MB-435, with NCI/ADR-RES ovarian, in the assay on OVCAR-4 ovarian, in the assay on RXF 393 renal and with U251 CNS was over 100 µM in each case. This molecule also showed a TGI in the assay with UACC-62 melanoma of over 100 µM.
